# Literature values as cited in patent publication US20220039380A1, “PEST CONTROL INCLUDING COMBINED MATING DISRUPTION AND TRAPPING” (Trécé Inc., priority 2019, published 2022).
# Like-named read-outs stand apart in the source and are kept apart here.
# Key:
# [1] = test system: Codling Moth (CM) Cydia pomonella; settings: kairomone attractants without pheromone, field demonstrated, Male Lures
# [2] = test system: Oriental Fruit Moth (OFM) Grapholita molesta; settings: for % increase in Male capture above pheromone alone: pheromone synergists, field demonstrated
# [3] = test system: Peach Twig Borer (PTB) Anarsia lineatella; settings: pheromone synergists, field demonstrated
# [4] = test system: Corn Earworm (CEW) Helocoverpa zea; settings: for % increase in Male capture above pheromone alone: pheromone synergists, field demonstrated
# [5] = test system: Codling Moth (CM) Cydia pomonella; settings: pheromone synergists, suggested (lab flight tunnel demonstrated)
# [6] = test system: Cabbage Looper (CL) Tricoplusia ni; settings: pheromone synergists, field demonstrated
# [7] = test system: Codling Moth (CM) Cydia pomonella; settings: pheromone synergists, proven (field demonstrated)
# [8] = test system: Beet Armyworm (BAW) Spodoptera exigua; settings: pheromone synergists, field demonstrated
# [9] = test system: Beet Armyworm (BAW) Spodoptera exigua; settings: Field & Flight Tunnel
# [10] = test system: Omnivorous Leafroller (OLR) Platynota stultana; settings: pheromone synergists, field demonstrated
# [11] = test system: Tobacco Budworm (TBW) Heliothis virescens; settings: pheromone synergists, field demonstrated
# [12] = test system: Codling Moth (CM) Cydia pomonella; settings: for HPVs Reduce/Inhibit Pear Ester Attraction: Females Attraction: codling moth females
# [13] = codling moth, added to Ethyl (2,4)(E,Z) decadienoate
compound,measurement,setting,value
C=C/C=C(\C)CCC=C(C)C,Male lure attraction (in words),[1],dimethyl nonatriene (less females)
same,% increase in Male capture above pheromone alone,[2],dimethyl nonatriene (427%)
same,% increase in Male capture above pheromone alone,[3],dimethyl nonatriene (134%)
same,% increase in Male capture above pheromone alone,[4],dimethyl nonatriene (357%)
C=CC(C)(O)CCC=C(C)C (racemic) [(±) linalool],Pheromone synergism,[5],(±) linalool (162%)
CCC(C)C=NO (centres unmarked) [2-methyl butanal oxime],% increase in Male capture above pheromone alone,[4],2-methyl butanal oxime (196%)
same,% increase in Male capture above pheromone alone,[6],2-methyl butanal oxime (196%)
OCCc1ccccc1 [2-phenylethanol],% increase in Male capture above pheromone alone,[6],2-phenylethanol (131%)
CC(C)CCO [3-methyl butanol],% increase in Male capture above pheromone alone,[7],3-methyl butanol (184%)
CCC/C=C/C=O [(E)-2-hexenal],% increase in Male capture above pheromone alone,[4],(E)-2-hexenal (176%)
same,% increase in Male capture above pheromone alone,[8],(E)-2-hexenal (123%)
same,% increase in Male capture above pheromone alone,[9],(E)-2-hexenal (139%)
CCC/C=C/CO [(E)-2-hexenol],Pheromone synergism,[10],(E)-2-hexenol (204%)
same,% increase in Male capture above pheromone alone,[3],(E)-2-hexenol (131%)
same,% increase in Male capture above pheromone alone,[6],(E)-2-hexenol (112%)
CCC/C=C/COC(C)=O [(E)-2-hexenyl acetate],% increase in Male capture above pheromone alone,[2],(E)-2-hexenyl acetate (210%)
same,% increase in Male capture above pheromone alone,[4],(E)-2-hexenyl acetate (190%)
same,% increase in Male capture above pheromone alone,[11],(E)-2-hexenyl acetate (183%)
C=C1CC/C=C(\C)CC[C@@H]2[C@@H]1CC2(C)C [(E)-beta-caryophyllene],% increase in Male capture above pheromone alone,[2],(E)-beta-caryophyllene (147%)
same,% increase in Male capture above pheromone alone,[4],(E)-beta-caryophyllene (344%)
C=C/C(C)=C/CC=C(C)C [(E)-beta-ocimene],% increase in Male capture above pheromone alone,[7],(E)-beta-ocimene (170%)
same,% increase in Male capture above pheromone alone,[4],(E)-beta-ocimene (141%)
C=CC(C)(O)CC/C=C(\C)CCC=C(C)C (centres unmarked) [(E)-nerolidol],% increase in Male capture above pheromone alone,[4],(E)-nerolidol (193%)
"C=C/C(C)=C/C/C=C(\C)CCC=C(C)C [(E,E)-alpha-farnesene]",HPVs Reduce/Inhibit Pear Ester Attraction,[12]; [13],"(E,E)-alpha-farnesene (−68%)"
same,% increase in Male capture above pheromone alone,[3],"(E,E)-alpha-farnesene (144%)"
CC1=CC[C@@H]2C[C@H]1C2(C)C [(R)-(+)-alpha-pinene],% increase in Male capture above pheromone alone,[4],(R)-(+)-alpha-pinene (348%)
CC1=CC[C@H]2C[C@@H]1C2(C)C [(S)-(−)-alpha-pinene],% increase in Male capture above pheromone alone,[4],(S)-(−)-alpha-pinene (215%)
CC/C=C\CCO [(Z)-3-hexenol],Pheromone synergism,[10],(Z)-3-hexenol (193%)
same,% increase in Male capture above pheromone alone,[3],(Z)-3-hexenol (117%)
same,% increase in Male capture above pheromone alone,[4],(Z)-3-hexenol (128%)
same,% increase in Male capture above pheromone alone,[6],(Z)-3-hexenol (152%)
same,% increase in Male capture above pheromone alone,[9],(Z)-3-hexenol (121%)
CC/C=C\CCOC(C)=O [(Z)-3-hexenyl acetate],Pheromone synergism,[5],(Z)-3-hexenyl acetate (151%)
same,HPVs Enhance Pear Ester Attraction (in words),[12]; [13],(Z)-3-hexenyl acetate (additive)
same,% increase in Male capture above pheromone alone,[2],(Z)-3-hexenyl acetate (258%)
same,% increase in Male capture above pheromone alone,[3],(Z)-3-hexenyl acetate (143%)
same,% increase in Male capture above pheromone alone,[11],(Z)-3-hexenyl acetate (217%)
same,% increase in Male capture above pheromone alone,[9],(Z)-3-hexenyl acetate (125%)
"C=C/C(C)=C/C/C=C(/C)CCC=C(C)C [(Z,E)-alpha-farnesene]",HPVs Reduce/Inhibit Pear Ester Attraction: Females Attraction,[12],"(Z,E)-alpha-farnesene (−87%)"
CC(C)=CCC[C@]1(C)[C@H]2CC=C(C)[C@@H]1C2 [alpha-(E)-bergamotene],% increase in Male capture above pheromone alone,[4],alpha-(E)-bergamotene (285%)
CC1=CC[C@H](C(C)C)C=C1 [alpha-phellandrene],% increase in Male capture above pheromone alone,[4],alpha-phellandrene (152%)
O=Cc1ccccc1 [benzaldehyde],Pheromone Antagonists,[2],benzaldehyde (68%)
C=C1C=CC(C(C)C)CC1 (stereo not drawn) [beta-phellandrene],% increase in Male capture above pheromone alone,[4],beta-phellandrene (342%)
CCCCCC(=O)OCCCC [butyl hexanoate],HPVs Reduce/Inhibit Pear Ester Attraction,[12]; [13],butyl hexanoate (−45%)
CC(C)=CCCC(C)=CCCC(C)=CCO [farnesol],HPVs Reduce/Inhibit Pear Ester Attraction,[12]; [13],farnesol (−56%)
CC1=CCC(C(C)C)=CC1 [gamma-terpinene],% increase in Male capture above pheromone alone,[7],gamma-terpinene (131%)
CCCCCC(C)O (centres unmarked) [heptan-2-ol],% increase in Male capture above pheromone alone,[4],heptan-2-ol (283%)
CCCCCC=O [hexanal],% increase in Male capture above pheromone alone,[4],hexanal (237%)
same,% increase in Male capture above pheromone alone,[8],hexanal (107%)
CCCCCCO [hexanol],% increase in Male capture above pheromone alone,[6],hexanol (132%)
CCCCCCOC(C)=O [hexyl acetate],% increase in Male capture above pheromone alone,[2],hexyl acetate (159%)
same,% increase in Male capture above pheromone alone,[4],hexyl acetate (176%)
C/C1=C\CC/C(C)=C/CC(C)(C)/C=C/C1 [humulene],% increase in Male capture above pheromone alone,[4],humulene (220%)
C=C(C)[C@H]1CC=C(C)CC1 [limonene],% increase in Male capture above pheromone alone,[3],limonene (132%)
same,% increase in Male capture above pheromone alone,[4],limonene (150%)
CC/C=C\CC1C(=O)CCC1CC(=O)OC (centres unmarked) [methyl jasmonate],% increase in Male capture above pheromone alone,[4],methyl jasmonate (255%)
CCCCCCCC(=O)OC [methyl octanoate],% increase in Male capture above pheromone alone,[3],methyl octanoate (172%)
COC(=O)c1ccccc1O [methyl salicylate],% increase in Male capture above pheromone alone,[4],methyl salicylate (172%)
C=CC(=C)CCC=C(C)C [myrcene],% increase in Male capture above pheromone alone,[7],myrcene (190%)
CCCCCCCCC=O [nonanal],HPVs Reduce/Inhibit Pear Ester Attraction: Females Attraction,[12],nonanal (−95%)
same,% increase in Male capture above pheromone alone,[4],nonanal (219%)
Cc1ccc(C(C)C)cc1 [para-cymene],% increase in Male capture above pheromone alone,[7],para-cymene (187%)
O=CCc1ccccc1 [phenyl acetaldehyde],"Blossom Volatiles, Gaura Volatiles, repeated below the heading Pheromone Antagonists",[4],phenyl acetaldehyde (216%)
same,% increase in Male capture above pheromone alone,[4],phenyl acetaldehyde (216%)
same,% increase in Male capture above pheromone alone,[6],phenyl acetaldehyde (188%)
same,% increase in Male capture above pheromone alone,[9],phenylacetaldehyde (135%)
CC1=CCC(O)(C(C)C)CC1 (centres unmarked) [terpinen-4-ol],% increase in Male capture above pheromone alone,[7],terpinen-4-ol (206%)
butanol,% increase in Male capture above pheromone alone,[7],butanol (202%)
